Laboratory results as given in the NIST ThermoML archive (doi:10.1021/je800637t).

Columns and labels:
[1] = mn = molality of the nth substance listed, in mol/kg; details: 100.8 kPa, Liquid, m2 = 0; for viscosity: Cone and plate viscometry; for electrical conductivity: Kyoto model CM-117 conductivity meter
[2] = refractive index (Na D-line) (dimensionless); mn = molality of the nth substance listed, in mol/kg; details: 100.8 kPa, Liquid, Standard Abbe refractometry, m2 = 0

O [water] + O=[N+]([O-])[O-].[K+]
Details | electrical conductivity, [1] [S/m] | refractive index, [2] | viscosity, [1] [mPa·s]
298.15 K | 0.000125 | 1.33277 | 0.891
313.15 K | 0.000164 | 1.3306 | 0.653

Details | mass density [kg/m3]
[1], 313.15 K, Vibrating tube method | 992.15
